The subject of data set [1] is Zika virus. The experiment in a line: Antiviral activity against Zika virus 976 Uganda infected in human HepG2 cells assessed as protection against viral infection by measuring cell survival at 10 uM measured after 4 days by CellTiter-Glo luminescent cell viability assay relative to control. The format is functional. Conditions: HepG2, 96 h, time 4 day. On the technique in general: ATP-based viability assays read luminescence as a measure of living cells.

Data set [2] in a line: Cytotoxicity against human HepG2 cells assessed as cell viability at 10 uM measured after 4 days by CellTiter-Glo luminescent cell viability assay relative to control. Conditions: time 4 day, read-out: Activity. Type of data set: cell-based.
The nature of data set [3]: Cytotoxicity against human HepG2 cells assessed as cell viability at 100 uM measured after 4 days by CellTiter-Glo luminescent cell viability assay relative to control. The format is cell-based. Conditions: time 4 day, read-out: Activity.
Data set [4] in a line: Inhibition of N-terminal thrombin cleavage fused His-tagged Zika virus ARD41644 NS2B Arg95Ala mutant (49 to 95 residues)/NS3 Arg29Gly mutant (1 to 170 residues) protease expressed in Escherichia coli BL21pLysS using Bz-nKRR-MCA peptide as substrate by FRET assay.
Data set [5] has as its system Zika virus. In words: Antiviral activity against Zika virus infected in 6 days old suckling ICR mouse assessed as inhibition of viral replication in brain at 1 mg/kg, ip administered at day 1, 3 and 5 post-infection by immunohistochemical staining. Type of data set: functional, organism-based.
Data set [6] relates to Zika virus. In words: Antiviral activity against Zika virus infected in 6 days old suckling ICR mouse assessed as reduction in monocyte infiltration in brain at 1 mg/kg, ip administered at day 1, 3 and 5 post-infection by immunohistochemistry analysis. Type of data set: functional, organism-based.
Data set [7] is described as follows: Inhibition of DENV2 NS2B-NS3 protease using Bz-nKRR-MCA as substrate by FRET assay. On the set-up: species or system dengue virus type 2.
Data set [8] deals with Zika virus. The experiment in a line: Antiviral activity against Zika virus infected in 6 days old suckling ICR mouse assessed as improvement in survival rate at 1 mg/kg, ip administered at day 1, 3 and 5 post-infection and monitored daily for 6 days post-infection. Type of data set: functional, organism-based.
The test system of data set [9] is Zika virus. In words: Antiviral activity against Zika virus MR766 infected in human Huh-7 cells assessed as reduction in viral RNA synthesis incubated for 3 days by qRT-PCR analysis. The format is functional, organism-based. A general note: Quantitative PCR measures a nucleic acid by following its amplification.
Data set [10] is described as follows: Binding affinity to N-terminal thrombin cleavage fused His-tagged Zika virus ARD41644 NS2B Arg95Ala mutant (49 to 95 residues)/NS3 Arg29Gly mutant (1 to 170 residues) protease expressed in Escherichia coli BL21pLysS by MST method.
Data set [11] concerns Zika virus. In words: Antiviral activity against Zika virus 976 Uganda infected in human HepG2 cells assessed as inhibition of viral infection measured after 4 days by CellTiter-Glo luminescent cell viability assay. The format is functional, organism-based. Conditions: HepG2, 96 h.
Data set [12] can be described thus: Non- competitive inhibition of N-terminal thrombin cleavage fused His-tagged Zika virus ARD41644 NS2B Arg95Ala mutant (49 to 95 residues)/NS3 Arg29Gly mutant (1 to 170 residues) protease expressed in Escherichia coli BL21pLysS using varying levels Bz-nKRR-MCA as substrate by Lineweaver-Burk double reciprocal plot analysis.
For data set [13], the system named is Zika virus. The experiment in a line: Antiviral activity against Zika virus MR766 infected in human Huh-7 cells assessed as reduction in viral infection. Type of data set: functional, organism-based. Conditions: MR766, Huh-7.
Data set [14] concerns Zika virus. The experiment in a line: Antiviral activity against Zika virus infected in 6 days old suckling ICR mouse assessed as reduction in brain damage at 1 mg/kg, ip administered at day 1, 3 and 5 post-infection by hematoxylin and eosin staining based analysis. The format is functional, organism-based.
For data set [15], the system named is Zika virus. The experiment in a line: Antiviral activity against Zika virus infected in 6 days old suckling ICR mouse assessed as reduction in virus titer in brain at 1 mg/kg, ip administered at day 1, 3 and 5 post-infection. Type of data set: functional, organism-based.
Data set [16] concerns Zika virus. In words: Antiviral activity against Zika virus infected in 6 days old suckling ICR mouse assessed as improvement in clinical scores at 1 mg/kg, ip administered at day 1, 3 and 5 post-infection and monitored daily for 6 days post-infection. The format is functional, organism-based.
The test system of data set [17] is Zika virus. The experiment in a line: Antiviral activity against Zika virus infected in 6 days old suckling ICR mouse assessed as improvement in body weight at 1 mg/kg, ip administered at day 1, 3 and 5 post-infection and monitored daily for 6 days post-infection. The format is functional, organism-based.
Data set [18] has as its system Zika virus. The experiment in a line: Antiviral activity against Zika virus MR766 infected in human Huh-7 cells assessed as reduction in viral NS2B protein synthesis incubated for 3 days by Western blot analysis. Type of data set: functional, organism-based. Conditions: dose microM 1-20, time 3.0 day. For orientation: Immunoblotting shows a protein as a band on a membrane.

Another data set relates to Huh-7. The experiment in a line: Cytotoxicity against human Huh-7 cells. Type of data set: cell-based.

As a reminder, the IC50 is the midpoint of a concentration-inhibition curve. As a reminder, the Kd is a measure of binding affinity in units of concentration. As a reminder, the Ki is a measure of affinity in units of concentration, obtained from inhibition or displacement. A higher Ki goes with lower affinity. A word on the EC50: it is the concentration giving half of the maximal effect.

The structures appear in SMILES notation. Active and inactive are the calls of the source. The rule behind the calls is not given here.

In the case of `COc1cc(C(=O)c2c(-c3ccccc3)[nH]c3ccc(Br)cc23)cc(OC)c1O`, in the data set with Zika virus [1], the survival at 10 µM worked out at 23%. For the same compound, the viability at 96 h, 10 µM in [2] came to 100%.

For the compound `NC(=O)c1ncn([C@@H]2O[C@H](CO)[C@@H](O)[C@H]2O)n1` [RIBAVIRIN], in data set [3], the viability at 96 h, 100 µM amounted to 100%.

Regarding `CCOC(=O)c1[nH]c2ccc(OC)cc2c1Cc1cc(OC)c(O)c(OC)c1`, the survival at 10 µM in the data set on Zika virus [1] was 28%. Also, the viability at 96 h, 10 µM in data set [2] was 100%.

As to `COC(=O)c1[nH]c2ccc(Br)cc2c1Cc1cc(OC)c(O)c(OC)c1`, in the data set with Zika virus [1], the survival at 10 µM came to 2%. The viability at 96 h, 10 µM in data set [2] was determined as 100%.

Take `COC(=O)c1[nH]c2ccc(OC)cc2c1C(=O)c1cc(OC)c(O)c(OC)c1`: the survival at 10 µM in the data set on Zika virus [1] was determined as 49%. For the same compound, the viability at 96 h, 10 µM in data set [2] was found to be 100%.

Regarding `CCOC(=O)c1[nH]c2ccccc2c1Cc1cc(OC)c(O)c(OC)c1`, the survival at 10 µM with Zika virus [1] is 0%. Besides, the viability at 96 h, 10 µM in data set [2] came out at 100%.

Turning to `COC(=O)c1[nH]c2ccc(Cl)cc2c1C(=O)c1cc(OC)c(O)c(OC)c1`, the IC50 in [4] was 158 µM; in data set [7], 112 µM; in the data set on Zika virus [9] (MR766, Huh-7, 72 h), 13.9 µM; in the data set on Zika virus [11], 13.7 µM. Further, the outcome with Zika virus [5], with Zika virus [6], with Zika virus [8], with Zika virus [14], in the data set with Zika virus [15] and in the data set with Zika virus [16] was Active. In addition, the result with Zika virus [17] was Active. Besides, the inhibition entry with Zika virus [9] (time 3.0 day) is “Dose-dependent effect”. The survival at 10 µM in the data set on Zika virus [1] was found to be 47%. The compound further returned a Kd in [10] of over 1000 µM. For the same compound, the affinity in data set [12] corresponds to a Ki of 280 µM. Moreover, the EC50 with Zika virus [13] came to 13.9 µM. In addition, the Activity entry with Zika virus [18] is “Dose-dependent effect”; in the data set with Huh-7, “Non-Toxic”. The viability at 96 h, 10 µM in data set [2] turned out to be 100%.

`COC(=O)c1[nH]c2ccc(Cl)cc2c1Cc1cc(OC)cc(OC)c1` came in with an IC50 in data set [4] of 770 µM. For the same compound, the survival at 10 µM with Zika virus [1] came out at 16%. In data set [2], the viability at 96 h, 10 µM was 100%.

For the compound `CCOC(=O)c1[nH]c2ccc(Br)cc2c1C(=O)c1cc(OC)c(O)c(OC)c1`, the IC50 stood at 33 µM in data set [4] and 15.8 µM in the data set with Zika virus [11]. Further, in the data set with Zika virus [1], the survival at 10 µM turned out to be 66%. Binding in data set [10] was characterised by a dissociation constant (Kd) of 300 µM. This compound also returned a Ki in data set [12] of 48 µM. Further, the EC50 in the data set on Zika virus [13] amounted to 16.2 µM. The viability at 96 h, 10 µM in data set [2] was found to be 100%.

For `COC(=O)c1[nH]c2ccc(Br)cc2c1C(=O)c1cc(OC)c(O)c(OC)c1`, in the data set with Zika virus [1], the survival at 10 µM was 22%. Moreover, the viability at 96 h, 10 µM in data set [2] is 100%.

`CCOC(=O)c1[nH]c2ccc(Br)cc2c1Cc1cc(OC)c(O)c(OC)c1`: in the data set on Zika virus [1], the survival at 10 µM is 20%. Moreover, the viability at 96 h, 10 µM in data set [2] is 100%.

`CCOC(=O)c1[nH]c2ccccc2c1C(=O)c1cc(OC)c(O)c(OC)c1`: the survival at 10 µM in the data set with Zika virus [1] was 0%. Besides, the viability at 96 h, 10 µM in [2] was 100%.

Consider `CCOC(=O)c1[nH]c2ccc(O)cc2c1C(=O)c1cc(OC)c(O)c(OC)c1`, for which the survival at 10 µM in the data set with Zika virus [1] turned out to be 0%. In addition, the viability at 96 h, 10 µM in data set [2] is 94%.

Turning to `COC(=O)c1[nH]c2ccc(Cl)cc2c1Cc1cc(OC)c(O)c(OC)c1`, the survival at 10 µM in the data set on Zika virus [1] is 23%. Further, the viability at 96 h, 10 µM in data set [2] came to 100%.

Regarding `CCOC(=O)c1[nH]c2ccc(OC)cc2c1C(=O)c1cc(OC)c(O)c(OC)c1`, the survival at 10 µM in the data set with Zika virus [1] is 47%. For the same compound, the viability at 96 h, 10 µM in data set [2] came to 100%.

These data come from ChEMBL document CHEMBL4725430, “Discovery of Zika Virus NS2B/NS3 Inhibitors That Prevent Mice from Life-Threatening Infection and Brain Damage” (ACS Med Chem Lett, 2020).
